The text below walks through data of patent publication US11693006B2, “Blood profiling with protease inhibitors” (Sangui Bio Pty. Ltd, priority 2016, dated 2023).

Numbered stars: 1 amine (or outer) side, 2 acyl side, 3 side chain; on linkers, the order of the positions; unused ones are H or OH. Square brackets hold non-standard residues; d marks the D form. Peptide text beside a SMILES is read from it. * marks the point of attachment. ξ: configuration not given here. Sta = CC(C)C[C@H](N)[C@@H](O)CC(=O)O; Isovaleryl = CC(C)CC(=O)*; ξR = N=C(N)NCCCC(N)C(=O)O; ξF = NC(Cc1ccccc1)C(=O)O; CO = O=C([*:1])[*:2]

Common to all, as to type: cell-based, human
Assay [1] deals with red blood cells from healthy individuals. Kind of assay: Cytokine release from red blood cells of healthy individuals incubated with protease inhibitors (27-plex and 21-plex Bio-Plex). Particulars: for effect on cytokine release from healthy red blood cells individually: individual inhibitors at Table 5 concentrations. As to the method:
Blood samples from healthy volunteers were used to evaluate the effect of specific protease inhibitors on proteins from red blood cells. Whole blood was collected from healthy volunteers by venepuncture (n≥3) directly into EDTA vacutainers (k2EDTA vacutainers, BD Biosciences). The fractions of blood were collected and processed at room temperature within 4 hours of collection. For multiplex analysis (BioPlex analysis) the samples were stored at −80° C.
The red blood cells were isolated using dextran sedimentation as follows. Whole blood was centrifuged (1500 g, 10 minutes) and the upper plasma layer was discarded. The remaining cell pellet was resuspended in an equal volume of sodium chloride (0.15 M). Dextran (6% w/v in 0.15 M sodium chloride) was then added to this cellular suspension at a 1:4 ratio (dextran:cell suspension). The solution was left at room temperature for 30 minutes for red blood cell sedimentation to the bottom of the tube. The upper white blood cell rich layer was then discarded and the lower red blood cell fraction isolated. The red blood cell fraction was washed once in phosphate buffered saline (PBS, 500 g, 5 minutes) and the remaining red blood cell pellet was counted (Coulter Act Diff, Beckman Coulter). The red blood cells were then diluted to 400 million cells/mL in PBS and were incubated at 37° C. and 5% CO2 for 24 hours. Some samples were also incubated with the protease inhibitors indicated in Table 5 during the PBS incubation.
(§1) After incubation, the resulting conditioned PBS was isolated by centrifugation (500 g, 5 minutes) and then stored at −80° C. The conditioned PBS samples were then analysed on the multiplex cytokine assays. Two multiplex assays were utilised. The first was a 27-plex human cytokine panel that assays for FGF basic, Eotaxin, G-CSF, GM-CSF, IFN-γ, IL-1β, IL-1ra, IL-2, IL-4, IL-5, IL-6, IL-7, IL-8, IL-9, IL-10, IL-12(p70), IL-13, IL-15, IL-17, IP-10, MCP-1, MIP-1α, MIP-1β, PDGF-BB, RANTES, TNF-α, and VEGF, and the second was a 21-plex human cytokine panel that assays for IL-1α, IL-2Ra, IL-3, IL-12, IL-16, IL-18, CTACK, GRO-α, HGF, IFN-α2, LIF, MCP-3, M-CSF, MIF, MIG, β-NGF, SCF, SCGF-β, SDF-1α, TNF-β, TRAIL (Bio-Plex Pro 27-plex and 21-plex, Bio-Rad). The assays were performed according to manufacturer's instructions using an automated magnetic wash station (BioPlex Pro II, Bio-Rad) for the washing steps. The assays were run on the Luminex® 200™ system (Bio-Rad) and fluorescent values were collected. The calibration curve for each cytokine was analysed with 5 parametric logistic curve regression using BioPlex manager software (ver. 5.0, Bio-Rad, USA).
The fold change was determined for proteins in red blood cell-conditioned PBS at 400 million cells/mL following incubation at 37° C. for 24 hours with protease inhibitor cocktail or individual protease inhibitors from healthy participants. […] Significant differences (p<0.05) were determined using Student T-tests.
To determine the effect of a combination of protease inhibitors on the release of proteins from red blood cells, a protein profile was obtained from healthy red blood cells incubated with protease inhibitor cocktails. […] Healthy red blood cells were incubated with A8127s and the cOmplete protease inhibitor cocktail (Roche).

The test system of assay [2] is red blood cells from individuals having colorectal cancer. Kind of assay: Cytokine release from red blood cells of individuals having colorectal cancer incubated with protease inhibitors (27-plex). The conditions noted are these: colorectal cancer red blood cells vs no protease inhibitors. As to the method:
Whole blood was collected from volunteers with by venepuncture directly into EDTA vacutainers (k2EDTA vacutainers, BD Biosciences). The fractions of blood were collected and processed at room temperature within 4 hours of collection. For multiplex analysis (BioPlex analysis) the samples were stored at −80° C. prior to analysis. The red blood cells were isolated using dextran sedimentation as follows. Whole blood was centrifuged (1500 g, 10 minutes) and the upper plasma layer was discarded. The remaining cell pellet was resuspended in an equal volume of sodium chloride (0.15 M). Dextran (6% w/v in 0.15 M sodium chloride) was then added to this cellular suspension at a 1:4 ratio (dextran:cell suspension). The solution was left at room temperature for 30 minutes for red blood cell sedimentation to the bottom of the tube. The upper white blood cell rich layer was discarded and the lower red blood cell fraction was isolated. The red blood cell fraction was washed once in phosphate buffered saline (PBS, 500 g, 5 minutes) and the remaining red blood cell pellet was counted (Coulter Act Diff, Beckman Coulter). The red blood cells were then diluted to 400 million cells/mL in PBS and incubated at 37° C. and 5% CO2 for 24 hours. Some samples were also incubated with the individual protease inhibitors in Table 5, a commercial protease inhibitor cocktail (cOmplete, Roche), or the A8127s protease inhibitor cocktail during the PBS incubation. The A8127s protease inhibitor cocktail comprised antipain-dihydrochloride (50 μg/mL); bestatin (40 μg/mL); E-64 (10 μg/mL); leupeptin (5 μg/mL); pepstatin (0.7 μg/mL); phosphoramidon (330 μg/mL); Pefabloc SC (1 mg/mL); EDTA-Na2 (0.5 mg/mL); and aprotinin (2 μg/mL).
as §1, with “minutes). The samples were” for “minutes) and then”, “on” for “on the multiplex cytokine assays. Two multiplex assays were utilised. The first was”, “VEGF” for “VEGF, and the second was a 21-plex human cytokine panel that assays for IL-1α, IL-2Ra, IL-3, IL-12, IL-16, IL-18, CTACK, GRO-α, HGF, IFN-α2, LIF, MCP-3, M-CSF, MIF, MIG, β-NGF, SCF, SCGF-β, SDF-1α, TNF-β, TRAIL”, “27-plex,” for “27-plex and 21-plex,”, “assay was” for “assays were”
Significant differences (p<0.05) were determined using Student T-tests. […]

Another assay relates to red blood cells. In words: Protein profile in red blood cell lysates using cationic salt (21-plex). Particulars: PBS containing 100 mM LiCl vs PBS. As to the method: Red blood cells were isolated using dextran sedimentation as follows. Whole blood was centrifuged (1500 g, 10 minutes) and the upper plasma layer was discarded. The remaining cell pellet was resuspended in an equal volume of sodium chloride (0.15 M). Dextran (6% w/v in 0.15 M sodium chloride) was then added to this cellular suspension at a 1:4 ratio (dextran:cell suspension). This solution was left at room temperature for 30 minutes for red blood cell sedimentation to the bottom of the tube. After this time the upper white blood cell rich layer and the lower red blood cell fraction were separated and the white blood cells discarded. The lower red blood cell fraction was washed twice in phosphate buffered saline (PBS, 500 g, 5 minutes). The supernatant was discarded, and the red blood cell pellet resuspended in either PBS or PBS containing 100 mM LiCl.
The red blood cells were subjected to 3 freeze-thaw cycles to ensure complete cellular lysis. […] The red blood cell lysates were analysed on a 21-plex human cytokine panel that assays for IL-1α, IL-2Ra, IL-3, IL-12, IL-16, IL-18, CTACK, GRO-α, HGF, IFN-α2, LIF, MCP-3, M-CSF, MIF, MIG, β-NGF, SCF, SCGF-β, SDF-1α, TNF-β, TRAIL (Bio-Plex Pro 27-plex and 21-plex, Bio-Rad). […] The calibration curve for each cytokine was analysed with 5 parametric logistic curve regression using BioPlex manager software (ver. 5.0, Bio-Rad, USA).

The mark [3] stands for this setting: healthy red blood cells, in words.

In the case of `CC(C)C[C@H](NC(=O)[C@H]1O[C@@H]1C(=O)O)C(=O)NCCCCN=C(N)N` [Sample ID 5, E-64], the “effect on cytokine release from healthy red blood cells individually” value (“effect on cytokine release” for short) in assay [1] was “significant effect”. For the compound Aprotinin [Sample ID 11], the “effect on cytokine release” value in assay [1] was “significant effect”.

Turning to `CC(C)[C@H](NC(=O)[C@H](CCCN=C(N)N)NC(=O)NC(Cc1ccccc1)C(=O)O)C(=O)NC(C=O)CCCN=C(N)N.Cl.Cl` (stereo partly drawn) [Sample ID 3, Antipain-dihydrochloride] ({ξF-CO}-Arg-Val-[ξR]-aldehyde), in assay [1], the “effect on cytokine release” value is given as “significant effect”. Besides, in assay [2], the “concentration of IL-1β, IL-8, TNF-α, MIP-1α, G-CSF and IL-6” value is “decreasing”; the “concentration of released IFN-γ, IL-12(p70), IL-15, IL-17, IL-13, IL-7, IP-10, PDGF-bb and IL-2” value is listed as “increased”. For the compound `CC(C)C[C@H](NP(=O)(O)O[C@@H]1O[C@@H](C)[C@H](O)[C@@H](O)[C@H]1O)C(=O)N[C@@H](Cc1c[nH]c2ccccc12)C(=O)O` [Sample ID 8, Phosphoramidon], the “effect on cytokine release” value in assay [1] is recorded as “significant effect”. Turning to `[Cl-].[Li+]` [lithium chloride], in the assay on red blood cells, the “level of several of the proteins in the assay (21-plex human cytokine panel)” value is on record as “increased and/or enhanced”. For `CC(C)C[C@H](NC(=O)[C@@H](O)[C@H](N)Cc1ccccc1)C(=O)O` [Sample ID 4, Bestatin], in assay [1] (setting [3]), the “concentration of HGF following red blood cell incubation” value was “dramatically increased”; the “concentration of released IFN-a2, IL-18, MIF, TRAIL, HGF, and IL12-p40” value is “alters”. Moreover, the “effect on cytokine release” value in assay [1] is “significant effect”. As to `Cl.NCCc1ccc(S(=O)(=O)F)cc1` [Sample ID 9, Pefabloc SC], in assay [1], the “effect on cytokine release” value was “significant effect”. Also, in assay [2], the “concentration of IL-1β, IL-8, IL-9, TNF-α, IL-1ra, MCP-1, MIP-1α, G-CSF and IL-6” value is reported as “decreasing”; the “released concentration of IL-13 and IL-7” value was “increased”. Turning to `O=C([O-])CN(CCN(CC(=O)[O-])CC(=O)O)CC(=O)O.[Na+].[Na+]` [Sample ID 10, EDTA-Na2], in assay [1], the “effect on cytokine release” value was “significant effect”. Same read-out and setting: with `CC(=O)N[C@@H](CC(C)C)C(=O)N[C@@H](CC(C)C)C(=O)N[C@H](C=O)CCCNC(=N)N` [Sample ID 6, Leupeptin] the entry was “significant effect”.

For `CC(C)CC(=O)N[C@H](C(=O)N[C@H](C(=O)N[C@@H](CC(C)C)[C@@H](O)CC(=O)N[C@@H](C)C(=O)N[C@@H](CC(C)C)[C@@H](O)CC(=O)O)C(C)C)C(C)C` [Sample ID 7, Pepstatin] (Isovaleryl-VV[Sta]A[Sta]-OH), in assay [1] (setting [3]), the “concentration of HGF following red blood cell incubation” value is “significantly decreased”; the “effect on concentration of IFN-a2, MIF, and HGF” value is reported as “opposite effect of bestatin”. Further, the “effect on cytokine release” value in assay [1] is recorded as “significant effect”.
